Data on four compounds can be found in US5591714A, “Derivatives of A82846” (priority 1994, dated 1997).

Values after ≈ are worked out from the molar mass of the structure shown.

The subject of data set [1] is Enterococcus faecalis 2041. The experiment in a line: MIC, standard agar-dilution assay. In kind it is cell-based. The method, then: (§1) The formula I compounds have in vitro and in vivo activity against Gram-positive pathogenic bacteria. The MIC's were determined using a standard agar-dilution assays.
^c Formerly Streptococcus faecalis 2041

Another data set has as its system Streptococcus pyogenes. The data set is described as follows: In vivo activity, experimentally infected mice (ED50). As to conditions: Streptococcus pyogenes infection; doses administered subcutaneously to mice 1 and 4 hours postinfection.
A further data set has as its system Staphylococcus aureus. The data set is described as above. As to conditions: Staphylococcus aureus infection; doses administered subcutaneously to mice 1 and 4 hours postinfection.
The test system of data set [2] is six vancomycin-susceptible strains of staphylococci and enterococci. The data set is described as follows: Effect of human serum on the MIC, serial dilution assay. In kind it is cell-based. As to conditions: for MIC determined in absence of added serum: absence (-) of human serum; for ratio of the MIC in the presence of added serum to the MIC in the absence of added serum: indication of the degree of serum binding; for MIC determined in presence of human serum: broth supplemented with human serum to 40%. From the text: Another important property of the formula I compounds is the low binding of the compounds to serum proteins when compared with other glycopeptide antibiotics. […] The ratio of the MIC measured in the presence of added serum to the MIC measured in the absence of added serum ("ratio") is an indication of the degree of serum binding. […] A ratio that is greater than one, for example about ten, indicates the compound has a high degree of serum binding.

The subject of data set [3] is Staphylococcus aureus S13E. The data set is classed as cell-based. The protocol:
as §1

Data set [4] has as its system Streptococcus pneumoniae Park 1. The data set is classed as cell-based. The protocol:
as §1

Data set [5] concerns Streptococcus pyogenes C203. The experiment in a line: MIC, standard agar-dilution assay. The data set is classed as cell-based. The protocol: as §1
Data set [6] deals with Staphylococcus aureus V41. The data set is described as follows: MIC, standard agar-dilution assay. The data set is classed as cell-based. The method, then:
as §1

Another data set has as its system Escherichia coli TEM. The data set is described as follows: MIC, standard agar-dilution assay. The data set is classed as cell-based. The protocol: as §1
The subject of data set [7] is Staphylococcus aureus X400. The experiment in a line: MIC, standard agar-dilution assay. The data set is classed as cell-based. The method, then: as §1
The subject of another data set is Escherichia coli EC14. The data set is described as follows: MIC, standard agar-dilution assay. The data set is classed as cell-based. The protocol: as §1
Data set [8] concerns Haemophilus influenzae C.L. The data set is described as follows: MIC, standard agar-dilution assay. In kind it is cell-based. The protocol:
as §1

The subject of data set [9] is Staphylococcus epidermidis EPI270. The experiment in a line: MIC, standard agar-dilution assay. In kind it is cell-based. The method, then: as §1
A further data set has as its system Escherichia coli N10. The experiment in a line: MIC, standard agar-dilution assay. The data set is classed as cell-based. The protocol:
as §1

Data set [10] deals with Klebsiella pneumoniae X68. The experiment in a line: MIC, standard agar-dilution assay. In kind it is cell-based. The method, then: as §1
The test system of data set [11] is Haemophilus influenzae 76. The data set is described as follows: MIC, standard agar-dilution assay. The data set is classed as cell-based. The protocol: as §1
Data set [12] relates to Klebsiella pneumoniae X26. The experiment in a line: MIC, standard agar-dilution assay. The data set is classed as cell-based. The protocol:
as §1

The subject of data set [13] is Staphylococcus aureus NRRL X1.1. The data set is described as follows: MIC, standard agar-dilution assay. The data set is classed as cell-based. The method, then: as §1
The test system of data set [14] is Staphylococcus epidermidis 222. The experiment in a line: MIC, standard agar-dilution assay. The data set is classed as cell-based. The method, then: as §1
In data set [15] the test system is Klebsiella pneumoniae KAE. The data set is described as follows: MIC, standard agar-dilution assay. In kind it is cell-based. The method, then: as §1
The next data set has as its system Streptococcus pneumoniae. The data set is described as follows: In vivo activity, experimentally infected mice (ED50). As to conditions: Streptococcus pneumoniae infection; doses administered subcutaneously to mice 1 and 4 hours postinfection.
A further data set concerns Enterococcus faecium X66. The experiment in a line: MIC, standard agar-dilution assay. In kind it is cell-based. The protocol:
as §1
^b Formerly Streptococcus faecium X66

Data set [16] concerns vancomycin-susceptible (Vanco^s) E. faecium and E. faecalis. The experiment in a line: Susceptibility of vancomycin-susceptible enterococci, agar-dilution MIC. The data set is classed as cell-based. As to conditions: n = 34 strains; end points read after 24-hour incubation. The protocol: (§2) End points were read after 24-hour incubation. The ratio was calculated by dividing the mean MIC of the compound against the vancomycin-resistant strains by the mean MIC of the compound against the vancomycin-susceptible strains.

The test system of data set [17] is vancomycin-resistant (Vanco^r) E. faecium and E. faecalis. The data set is described as follows: Susceptibility of vancomycin-resistant enterococci, agar-dilution MIC. In kind it is cell-based. As to conditions: for Geometric Mean MIC, Vanco^r Strains: n = 25 strains, end points read after 24-hour incubation. The protocol: as §2
The test system of another data set is human serum protein. As to conditions: cited from earlier work.

As for `CCCCCCCCCCN[C@@]1(C)C[C@H](O[C@H]2[C@H](Oc3c4cc5cc3Oc3ccc(cc3Cl)[C@@H](O[C@H]3C[C@](C)(N)[C@@H](O)[C@H](C)O3)[C@@H]3NC(=O)[C@H](NC(=O)[C@@H]5NC(=O)[C@H](CC(N)=O)NC(=O)[C@H](NC(=O)[C@@H](CC(C)C)NC)[C@H](O)c5ccc(c(Cl)c5)O4)c4ccc(O)c(c4)-c4c(O)cc(O)cc4[C@@H](C(=O)O)NC3=O)O[C@H](CO)[C@@H](O)[C@@H]2O)O[C@@H](C)[C@@H]1O` [Compound 42], the MIC result in data set [1] was “.5 µg/mL”; in data set [3], 1 µg/mL (≈ 0.577 µM); in data set [4], “.25 µg/mL”; in [5], “.25 µg/mL”; in data set [6], “.5 µg/mL”; against Escherichia coli TEM, more than 128 µg/mL. Besides, the MIC entry in data set [7] was “.5 µg/mL”; against Escherichia coli EC14 it was more than 128 µg/mL; in data set [8], more than 128 µg/mL; in data set [9], 1 µg/mL (≈ 0.577 µM); in the data set with Escherichia coli N10, more than 128 µg/mL; in data set [10], more than 128 µg/mL. Besides, the MIC is more than 128 µg/mL in [11]; more than 128 µg/mL in data set [12]; “.5 µg/mL” in data set [13]; “.5 µg/mL” in [14]; more than 128 µg/mL in [15]; “.06 µg/mL” in the data set with Enterococcus faecium X66. The ED50 is given as 0.09 mg/kg/2 in the data set with Streptococcus pyogenes, 0.67 mg/kg/2 in the data set on Staphylococcus aureus and 0.09 mg/kg/2 in the data set on Streptococcus pneumoniae. Also, the “MIC determined in absence of added serum” value in data set [2] was found to be 0.87. Besides, the “ratio of the MIC in the presence of added serum to the MIC in the absence of added serum” value (from here on “ratio of the MIC”) in [2] came to 0.76. Also, the “MIC determined in presence of human serum” value (“MIC determined in presence” for short) in data set [2] is 0.66. Besides, in data set [16], the “Geometric Mean MIC, Vanco^s Strains” value turned out to be 0.92 µg/mL. The “Ratio (mean MIC vancomycin-resistant strains / mean MIC vancomycin-susceptible strains)” value in data set [17] turned out to be 2.7. Also, the “Geometric Mean MIC, Vanco^r Strains” value in [17] was 2.5 µg/mL.
As for `CNC(CC(C)C)C(=O)NC1C(=O)NC(CC(N)=O)C(=O)NC2C(=O)NC3C(=O)NC(C(=O)NC(C(=O)O)c4cc(O)cc(O)c4-c4cc3ccc4O)C(OC3CC(C)(N)C(O)C(C)O3)c3ccc(c(Cl)c3)Oc3cc2cc(c3OC2OC(CO)C(O)C(O)C2OC2CC(C)(NCc3ccc(Br)cc3)C(O)C(C)O2)Oc2ccc(cc2Cl)C1O` (centres unmarked) [Compound 58], the MIC entry was “.25 µg/mL” in data set [1]; 1 µg/mL (≈ 0.568 µM) in data set [3]; “.125 µg/mL” in data set [4]; “.125 µg/mL” in data set [5]; “.5 µg/mL” in data set [6]; more than 128 µg/mL against Escherichia coli TEM. Also, the MIC in data set [7] was 1 µg/mL (≈ 0.568 µM); with Escherichia coli EC14, more than 128 µg/mL; in data set [8], more than 128 µg/mL; in [9], 2 µg/mL (≈ 1.14 µM); with Escherichia coli N10 it was more than 128 µg/mL; in data set [10], more than 128 µg/mL. Moreover, the MIC is more than 128 µg/mL in [11]; more than 128 µg/mL in data set [12]; “.5 µg/mL” in data set [13]; “.5 µg/mL” in [14]; more than 128 µg/mL in data set [15]; “.25 µg/mL” in the data set with Enterococcus faecium X66. The ED50 in the data set with Streptococcus pyogenes was 0.05 mg/kg/2; in the data set on Staphylococcus aureus it was 0.38 mg/kg/2; in the data set on Streptococcus pneumoniae it was 0.08 mg/kg/2. For the same compound, the “MIC determined in absence of added serum” value in [2] is on record as 0.43. In addition, the “ratio of the MIC” value in data set [2] amounted to 2.3. Further, the “MIC determined in presence” value in data set [2] amounted to 1.0. In data set [16], the “Geometric Mean MIC, Vanco^s Strains” value was found to be 0.67 µg/mL. Moreover, the “Ratio (mean MIC vancomycin-resistant strains / mean MIC vancomycin-susceptible strains)” value in data set [17] is recorded as 4.6. Besides, the “Geometric Mean MIC, Vanco^r Strains” value in data set [17] came out at 3.1 µg/mL.
On to `CN[C@H](CC(C)C)C(=O)N[C@H]1C(=O)N[C@@H](CC(N)=O)C(=O)N[C@H]2C(=O)N[C@H]3C(=O)N[C@H](C(=O)N[C@H](C(=O)O)c4cc(O)cc(O)c4-c4cc3ccc4O)[C@H](O)c3ccc(c(Cl)c3)Oc3cc2cc(c3O[C@@H]2O[C@H](CO)[C@@H](O)[C@H](O)[C@H]2O[C@H]2C[C@](C)(N)[C@H](O)[C@H](C)O2)Oc2ccc(cc2Cl)[C@H]1O` [vancomycin], for which, in the data set with human serum protein, the “level of human serum protein binding” value is given as 55%.
Regarding Teicoplanin [reference compound], the “level of human serum protein binding” value with human serum protein is “about 90%”. Moreover, in data set [2], the “MIC determined in absence of added serum” value turned out to be 0.25, the “ratio of the MIC” value came out at 12.6 and the “MIC determined in presence” value amounted to 3.8.
